Data reported in US11891386B2, “Indole compounds and their use” (ARIAGEN, INC., priority 2017, dated 2024).

Tests used:
[1] = system: CYP1A1 in human HepG2 cells; assay: EROD assay (7-ethoxy-resorufin-O-deethylase), human HepG2 cells; format: cell-based; set-up: key to activity group based on EC50 values, in the order of increasing activity: (1) active; (2) more active; (3) most active; details: for EC50: EROD assay, 20 hours treatment; for EC50 / activity in the human EROD assay compared to ARI-001 / ARI-002, in words: human HepG2 cells; for activity group based on EC50 values, in the order of increasing activity: human EROD assay, oxadiazole derivatives of ITE
Procedure: (§1) CYP1A1 induction is under the control of the AhR signaling pathway. This Example describes an in vitro assay (7-ethoxy-resorufin-O-deethylase (EROD) assay) that evaluated the AhR modulating activities of the indole compounds described herein. In this assay, the indole compounds were incubated with human HepG2 cells or mouse Hepal-6 cells. The activity of CYP1A1 in the cells was measured by the conversion of substrate 7-ethoxyresorufin, with the readout being a fluorescence signal associated with the conversion product. The EC50 values of the indole compounds as well as the maximum […] induced by them in the assay were determined.
(§2) Human HepG2 cells were obtained from Sigma Aldrich (Catalog 85011430-1VL). Mouse Hepal-6 cells also were obtained from Sigma Aldrich (Catalog 92110305-1V).
(§3) Human HepG2 and Mouse Hepal-6 cells were grown to 60-80% confluency in tissue culture flasks, lifted with non-enzymatic cell dissociation solution (cell stripper), seeded in a 384-well plate at 5,000 cells per well, treated with the test compounds, and incubated for 20 hours overnight at 37° C. The treatment medium was removed and a solution of substrate 7-ethoxyresorufin (ETX) was added to initiate the reaction. The plate was incubated at 37° C. for 30 minutes. The reaction was subsequently terminated by adding tempered methanol. Fluorescent emission was measured at 590 nm with excitation at 530 nm in a FLEXSTATION III instrument (Molecular Devices).

[2] = system: CYP1A1 in mouse Hepal-6 cells; assay: EROD assay (7-ethoxy-resorufin-O-deethylase), mouse Hepa1-6 cells; format: cell-based; details: EROD assay, 20 hours treatment
Procedure: as §1, §2, §3

[3] = In vivo pharmacokinetic study in Sprague-Dawley rats; details: rat; for bioavailability: Sprague-Dawley, plasma, po, 10 mg/kg, PO (10 mg/kg) vs IV (2 mg/kg), read-out: F % (bioavailability); for % of Hepatisc Blood Flow: IV (2 mg/kg)
Procedure: This example describes pharmacokinetic (PK) studies of the various indole compounds described herein in rats, a rodent species widely used for pre-clinical toxicology evaluation. In the present studies, the test compounds were given to groups of Sprague-Dawley rats (N=3 in each group) intravenously (IV) at 2 mg/kg or orally (PO) at 10 mg/kg. IV doses were formulated in DMSO, while PO doses were formulated in a 50/50 mixture of PEG400 and Tween 80. Blood samples were collected at pre-dose and over a period of 24 hours post-dose. Plasma concentrations of the indole compounds were determined by HPLC.

[4] = system: Pan02 syngeneic mouse tumor model (pancreatic cancer); assay: Anti-tumor activity, Pan02 syngeneic mouse tumor model; format: in vivo
Procedure: (§4) This example describes in vivo studies that evaluated the anti-cancer efficacy of the disclosed indole compounds in syngeneic mouse tumor models. Mice implanted subcutaneously with four types of cancer cells were treated with test indole compounds or vehicle controls as described below.
(§5) A monolayer culture of tumor cells was maintained in vitro in DMEM or RPMI1640 medium supplemented with 10% fetal bovine serum at 37° C. in an atmosphere of 5% CO2. Cells in exponential growth phase were harvested and quantitated by cell counter before tumor inoculation. The cell lines used are described in the table below.
(§6) Four subcutaneous syngeneic mouse tumor models were generated by innoculating female BALB/C or C57BL/6 mice with cancer cells at their right lower or front flank as detailed in the table below:
(§7) Each mouse was inoculated subcutaneously with tumor cells in 0.1 mL of PBS. Treatments were started when the mean tumor size reached approximately 80-120 mm^3 (around 100 mm^3). The administration of the indole compounds and the animal number in each study group are shown in the study design. The date of tumor cell inoculation was denoted as day 0.
(§8) The indole compounds were dissolved in DMSO at the final concentration of 26.7 mg/ml and stored at room temperature.
Randomization of animals was started when the mean tumor size reached approximately 90 mm^3 to form the mouse study groups. […]
(§9) After tumor cell inoculation, the mice were checked daily for morbidity and mortality. During routine monitoring, the mice were checked for tumor growth and any effects of the treatment on behavior such as mobility, food and water consumption, body weight gain/loss (body weights were measured twice per week after randomization), eye/hair matting, and any other abnormalities. Mortality and observed clinical signs were recorded for individual mice in detail.
Tumor volumes were measured twice per week in two dimensions using a caliper, and the volume was expressed in mm^3 using the formula: V=(L×W×W)/2, where V is tumor volume, L is tumor length (the longest tumor dimension) and W is tumor width (the longest tumor dimension perpendicular to L). […] The body weights and tumor volumes were measured by using StudyDirector™ software (version 3.1.399.19). […]
(§10) Tumor growth inhibition percentage (TGI %) is an indicator for antitumor activity of a drug compound, and expressed as: TGI (%)=100×(1−T/C), where T and C are the mean tumor volume (or weight) of the treated and control groups, respectively, on a given day. […]
In Studies 1 and 3, the anti-tumor activity of ARI-001 in parallel with ARI-002 at 160 mg/kg (mpk), and the anti-tumor activity of ARI-087 in parallel with ARI-002 at 40 mpk were assessed using the EMT-6, Pan02, A20, and LL/2 models. […]

[5] = system: A20 syngeneic mouse tumor model (B cell lymphoma); assay: Anti-tumor activity, A20 syngeneic mouse tumor model; format: in vivo
Procedure: as §4, §5, §6, §7, §8
(§11) Randomization of animals was started when the mean tumor size reached approximately 90 mm^3 to form the mouse study groups. The randomization was performed based on “Matched distribution” method using the multi-task method (StudyDirector™ software, version 3.1.399.19)/randomized block design. The mouse groups (ten in each group) were treated with vehicle (DMSO) or the indole compounds at a dose of 40 mg/kg by i.p. injection, QD for 28 days or longer.
as §9
(§12) Tumor volumes were measured twice per week in two dimensions using a caliper, and the volume was expressed in mm^3 using the formula: V=(L×W×W)/2, where V is tumor volume, L is tumor length (the longest tumor dimension) and W is tumor width (the longest tumor dimension perpendicular to L). Dosing as well as tumor and body weight measurements was conducted in a Laminar Flow Cabinet. The body weights and tumor volumes were measured by using StudyDirector™ software (version 3.1.399.19). Dosing Holiday
as §10
(§13) In Studies 1 and 3, the anti-tumor activity of ARI-001 in parallel with ARI-002 at 160 mg/kg (mpk), and the anti-tumor activity of ARI-087 in parallel with ARI-002 at 40 mpk were assessed using the EMT-6, Pan02, A20, and LL/2 models. […] In Study 5, the anti-tumor activity of ARI-087 was evaluated in parallel with ARI-143 and ARI-149 at 40 mpk. […]

[6] = system: LL/2 syngeneic mouse tumor model (lung cancer); assay: Anti-tumor activity, LL/2 syngeneic mouse tumor model; format: in vivo
Procedure: as §4, §5, §6, §7, §8, §11, §9, §12, §10, §13

[7] = Separate PK study in mice; format: in vivo; details: data not shown
hepatocytes = assay: Metabolite analysis in hepatocytes by high-resolution mass spectrometry; format: in vitro ADME; details: preliminary studies
Source text: It remains unclear whether halogen substitutions at the indole ring impact the activity and metabolic profiles of the indole compounds described herein.

[8] = Study 3, Pan02, 40 mpk i.p. QD, D60
[9] = Study 3, A20, 40 mpk i.p. QD, D28
[10] = Study 3, LL/2, 40 mpk i.p. QD, D28

Compound | EC50 [1] [nM] | EC50 [2] [nM] | bioavailability [3] [%] | % of Hepatisc Blood Flow [3] [%] | activity group based on EC50 values, in the order of increasing activity [1] | activity in the human EROD assay compared to ARI-001 / ARI-002, in words [1] | IV PK profile compared to ARI-001, ARI-002, and ARI-004, in words ([3]; IV) | TGI (tumor growth inhibition) [4, 8] [% D60] | TGI (tumor growth inhibition) [5, 9] [% D28] | TGI (tumor growth inhibition) [6, 10] [% D28] | PK improvement over ARI-001 and ARI-002, in words [7] | absolute oral bioavailability, times higher than ARI-002 ([3]; PO) [times] | primary metabolites of the indole ring identified (hepatocytes) | further results
COC(=O)c1csc(C(=O)c2c[nH]c3ccccc23)n1 [ARI-001, ITE] | 28.9 | 64 | 0.4 | 289 |  |  |  |  |  |  |  |  |  | TGI (tumor growth inhibition) ([4]; Study 1, Pan02, 160 mpk, D28): 74.2% D28; TGI (tumor growth inhibition) ([5]; Study 1, A20, 160 mpk, D26): 54.5% D26; TGI (tumor growth inhibition) ([6]; Study 1, LL/2, 160 mpk, D28): 65.1% D28
Cc1nc(-c2csc(C(=O)c3c[nH]c4ccccc34)n2)no1 [ARI-030, (1H-indol-3-yl)(4-(5-methyl-1,2,4-oxadiazol-3-yl)thiazol-2-yl)methanone] |  |  | 0.9 | 28 | active | significantly more (about 4 to 900 times more) active than ARI-001 | improved IV PK profiles | 23.5 | −0.8 | 8.4 | confirms the improvement |  |  | 
Cc1noc(-c2csc(C(=O)c3c[nH]c4ccccc34)n2)n1 [ARI-031, (1H-indol-3-yl)(4-(3-methyl-1,2,4-oxadiazol-5-yl)thiazol-2-yl)methanone] |  |  | 6.3 | 103 | active | significantly more (about 4 to 900 times more) active than ARI-001 | improved IV PK profiles |  |  |  | confirms the improvement |  |  | 
Nc1nnc(-c2csc(C(=O)c3c[nH]c4ccccc34)n2)o1 [ARI-083, (4-(5-amino-1,3,4-oxadiazol-2-yl)thiazol-2-yl)(1H-indol-3-yl)methanone] |  |  | 1 | 45 | more active | significantly more (about 4 to 900 times more) active than ARI-001 | improved IV PK profiles | 2.7 | 22 | 24.0 |  |  |  | 
CCC(=O)c1csc(C(=O)c2c[nH]c3ccc(F)cc23)n1 [ARI-087, 1-(2-(5-fluoro-1H-indole-3-carbonyl)thiazol-4-yl)propan-1-one] | 34.2 | 5.8 | 19.7 | 84 |  |  |  | 64.9 | 20.9 |  |  | 1.8 | fewer primary metabolites of the indole ring | IV AUCinf, % of that of ARI-002 ([3]; IV): 45%; plasma clearance, times higher than ARI-002 ([3]; IV): 3.2 times; PO AUCinf, % of that of ARI-002 ([3]; PO): 81%; tumor inhibitory activity compared to ARI-002, in words ([5]; Study 3, lymphoma model, 40 mpk): better tumor inhibitory activity than parent compound ARI-002; TGI (tumor growth inhibition) ([6]; Study 3, LL/2, 40 mpk i.p. QD, D38): 23.3% D38; tumor inhibitory activity compared to ARI-002, in words ([6]; Study 3, lung model, 40 mpk): better tumor inhibitory activity than parent compound ARI-002
CCC(=O)c1csc(C(=O)c2c[nH]c3cc(F)ccc23)n1 [ARI-143, 1-(2-(6-fluoro-1H-indole-3-carbonyl)thiazol-4-yl)propan-1-one] | 4.2 | 2.3 | 19.3 | 19 |  |  |  |  |  |  |  | 1.8 | fewer primary metabolites of the indole ring | IV AUCinf, times higher than ARI-002 ([3]; IV): 1.5 times; plasma clearance, % of that of ARI-002 ([3]; IV): 74%; PO AUCinf, times higher than that of ARI-002 ([3]; PO): 2.6 times
